In ChEMBL document CHEMBL5136989, “A review on the treatment of multiple myeloma with small molecular agents in the past five years” (Eur J Med Chem, 2022) one finds IC50 data, which are given here for 33 molecules.

SMILES strings stand for the structures. pIC50: −log10 of the molar value.

One assay has as its system Proteasome. Description: Inhibition of proteasome (unknown origin).
Details: not given
It counts as subcellular, Homo sapiens.
A word on the pIC50: it is the negative decadic logarithm of the IC50, by convention in mol/L. High values mean a small IC50, low ones a large IC50. Molecule `CC(=O)N[C@@H](CCc1ccccc1)C(=O)N[C@@H](CC(C)C)C(=O)N[C@@H](Cc1ccccc1)C(=O)N[C@@H](CC(C)C)C(=O)[C@]1(C)CO1` showed a pIC50 of 6.59.

`CC(C)C[C@H](NC(=O)[C@H](CCc1ccccc1)NC(=O)CN1CCOCC1)C(=O)N[C@@H](Cc1ccccc1)C(=O)N[C@@H](CC(C)C)C(=O)[C@@]1(C)CO1` [CARFILZOMIB] gave a negative logarithm of the IC50 (pIC50) of 7.48. On the same count and under the same terms, the result for `CC[C@H](C)[C@H](NC(=O)[C@H]([C@@H](C)CC)N(C)C(C)=O)C(=O)N[C@H](C(=O)N[C@@H](CC(C)C)C(=O)[C@@]1(C)CO1)[C@@H](C)O` [EPOXOMYCIN] reads 6.58; that for `CC(C)C[C@H](NC(=O)CNC(=O)c1cc(Cl)ccc1Cl)B(O)O` [IXAZOMIB], 8.30; that for `CC(C)C[C@H](NC(=O)[C@H](Cc1ccccc1)NC(=O)c1cnccn1)B(O)O` [BORTEZOMIB], […]. `NS(=O)(=O)OC[C@@H]1C[C@@H](n2ccc3c(N[C@H]4CCc5ccccc54)ncnc32)C[C@@H]1O` [PEVONEDISTAT] had a negative-log IC50 (pIC50) of 8.40.

System in a further assay: not listed separately
Description: Anticancer activity in human multiple myeloma cells. Conditions: Multiple myeloma cell. It counts as functional, cell-based.
In the case of `O=C(/C=C\n1cnc(-c2cc(C(F)(F)F)cc(C(F)(F)F)c2)n1)NNc1cnccn1` [SELINEXOR], the negative-log IC50 (pIC50) is 7.36. `CC1(C)CCC(CN2CCN(c3ccc(C(=O)NS(=O)(=O)c4ccc(NCC5CCOCC5)c([N+](=O)[O-])c4)c(Oc4cnc5[nH]ccc5c4)c3)CC2)=C(c2ccc(Cl)cc2)C1` [VENETOCLAX]: the negative-log IC50 (pIC50) was 7.57.

System in another assay: not listed separately
Description: Induction of mitotic arrest in human multiple myeloma cells. The format is functional, cell-based. Conditions: multiple myeloma cell.
Turning to `CON(C)C(=O)N1N=C(c2cc(F)ccc2F)S[C@@]1(CCCN)c1ccccc1` [FILANESIB], the pIC50 was 8.21. The molecule `O=[N+]([O-])c1ccc(O)c2ncccc12` [NITROXOLINE] showed a negative-log IC50 (pIC50) of 5.28.

`CN(C)c1ccccc1CN1CCCN(Cc2ccccc2N(C)C)C1c1ccncc1`: the pIC50 is 5.30. `c1cc(CN2CCCNCCNCCCNCC2)ccc1CN1CCCNCCNCCCNCC1` [PLERIXAFOR] had a pIC50 of 7.57. On the same count and under the same terms, the result for `Cc1ccc(CN(CC(O)COc2cccc3[nH]ccc23)C(C)(C)C)cc1` (stereo not drawn) reads 4.55.

System in another assay: not listed separately
Description: Immunomodulatory activity in human MM cells. It counts as functional, cell-based. Conditions: multiple myeloma cell.
The molecule `O=C1CCC(N2C(=O)c3ccccc3C2=O)C(=O)N1` (stereo not drawn) [THALIDOMIDE] had a negative logarithm of the IC50 (pIC50) of 3.71. Same read-out and setting: in the case of `Cc1ccc(NC(=O)NCc2ccc3c(c2)CN(C2CCC(=O)NC2=O)C3=O)cc1Cl` (stereo not drawn) it was 9.52; in that of `Nc1cccc2c1CN(C1CCC(=O)NC1=O)C2=O` (stereo not drawn) [LENALIDOMIDE], 7.09. The same measure, in the same setting: the result for `Nc1cccc2c1C(=O)N(C1CCC(=O)NC1=O)C2=O` (stereo not drawn) [POMALIDOMIDE] reads 7.46; that for `O=C1CC[C@H](N2Cc3c(OCc4ccc(CN5CCOCC5)cc4)cccc3C2=O)C(=O)N1` [IBERDOMIDE], 7.89.

Another assay concerns Multiple myeloma cancer stem cell. Description: Cytotoxicity against human Myeloma-stem like cells. It counts as functional, cell-based.
Details: not given
Molecule `C=CCn1c(=O)c2cnc(Nc3ccc(N4CCN(C)CC4)cc3)nc2n1-c1cccc(C(C)(C)O)n1` [ADAVOSERTIB] gave a negative-log IC50 (pIC50) of 6.51.

System in another assay: not listed separately
Description: Cytotoxicity against human multiple myeloma cells by WST-1 assay. It counts as functional, cell-based. Conditions: Multiple myeloma cell.
On to `CCc1c(-c2ccc3[nH]ncc3c2)cnc(N)c1-c1ccc(O)cc1`, for which the negative-log IC50 (pIC50) was 6.12.

As to `CCc1c(-c2ccc(C(=O)NC)nc2)cnc(N)c1-c1ccc(O)cc1`, the pIC50 is 5.87. For `N#C/C(=C/c1cccc(Br)n1)C(=O)NCc1cccc(CNC(=O)/C(C#N)=C\c2cccc(Br)n2)c1`, the negative logarithm of the IC50 (pIC50) was 6.62. `CCN(CCCNC(=O)c1ccc2nc3c(c(Cl)c2c1)CCCC3)Cc1ccccc1`: the negative logarithm of the IC50 (pIC50) was 4.65. Consider `CCCSc1nc(NCCN)c2nnn(Cc3ccc(Cl)cc3)c2n1`, for which the pIC50 is 5.96. Turning to `CC(=O)c1cc([N+](=O)[O-])c(Sc2cccc(Cl)c2Cl)s1`, the negative logarithm of the IC50 (pIC50) was 5.22. Take `CN(CCCNC(=O)c1ccc2nc3c(c(Cl)c2c1)CCCC3)Cc1ccccc1`: the pIC50 is 4.55. In the case of `CN(C)CCC(CSc1ccccc1)Nc1ccc(S(=O)(=O)NC(=O)c2ccc(N3CCN(Cc4ccccc4-c4ccc(Cl)cc4)CC3)cc2)cc1[N+](=O)[O-]` (stereo not drawn), the pIC50 was > 6.30.

The molecule `O=C1c2ccccc2C(=O)c2oc(-c3cccnc3)nc21` showed a negative logarithm of the IC50 (pIC50) of 7.00. `CC(NC(=O)/C(C#N)=C/c1cccc(/C=C(\C#N)C(=O)NC(C)c2ccccc2)c1)c1ccccc1` (stereo not drawn) gave a pIC50 of 6.40. Still for that read-out and setting: the result for `C=CC(=O)N1CC/C(=C\c2ccc(F)c([N+](=O)[O-])c2)C(=O)/C(=C/c2ccc(F)c([N+](=O)[O-])c2)C1` reads 7.37; that for `CS(=O)(=O)N1CCN(C(=S)Nc2ccc([N+](=O)[O-])cc2)CC1`, 4.47. In turn, `O=C(CBr)N1CC([N+](=O)[O-])([N+](=O)[O-])C1` [NIBROZETONE] showed a negative logarithm of the IC50 (pIC50) of 5.90. On the same count and under the same terms, the result for `CCCC(NC(=O)/C(C#N)=C/c1cccc(Br)n1)c1ccccc1` (stereo not drawn) reads 5.80.
